Patent US20060024373A1, “Cross-linked hyaluronic acid-laminin gels and use thereof in cell culture and medical implants” (priority 2000, published 2006)

Legend:
[1] = test system: neuronal cells dissociated from brains of 14-16 days rat embryos; assay: Rat embryonic brain cells cultured in enriched HA-LN-gel with antioxidants / protective agents; format: cell-based; conditions: for most effective dose: agent added to enriched HA-LN-gel before culturing the cells, AA tested at 1 mM, 330 μM, 100 μM, NAC at 0.1, 1, 10 μM; for neuronal sprouting: first 24-48 hours of culture in the enriched gel, versus untreated control cultures
Method: Neuronal cells were manually dissociated from brains of 14-16 days rat embryos. Cells were embedded in the HA-LN-gel, which was enriched as described herein above. NAC and AA were obtained from SIGMA (Cat. No. 616-91-1 and […]; Lot 108H00575 and 096H02811, respectively). Pifithrin-α, cyclic (Calbiochem, Cat No. 506134, lot:B41595) is a very stable analog of pifithrin-α, with reduced cytotoxicity. NAC, AA and Pifithrin-α cyclic were added to the HA-LN-gel (enriched with neural growth factors) prior to culturing of cells. Culture medium was changed twice a week. All the experiments contained control cultures (without treatment of NAC or AA or Pifithrin-α. 5-7 experiments were performed in 12 wells, in triplicates. Dissociated brain cells were attached to DE53 cylindrical, positively charged microcarriers (MCs), and suspended in brain medium for 4-17 days ([…] 1990 Methods in Neur 2:195-209). The floating cell-MC aggregates were transferred (using fine spatula, under a stereo microscope) into HA-LN-gel enriched with the indicated growth factors or Antioxidants. During one month of daily observations the following differences (which were more pronounced in the stationary MC-cultures) were observed: […]

[2] = test system: Endothelial cells (HUVEC); assay: Attachment and growth of endothelial cells on or in substrates and milieus; format: cell-based
Method: In order to test the ability of HA-LN-gel to support the attachment and growth of endothelial cells, several experiments were conducted:
Endothelial cells (HE4 split #1), grown on gelatin, were collected by 0.25% trypsin-EDTA digestion. HUVEC were counted and 1.35×10^6 cells were divided into treatment groups. The cells were seeded in triplicates into 12-well plates at a concentration of 50,000 cells per well. The treatment groups were as follows: • 1. Cells seeded on the plastic • 2. Cells seeded on gelatin coating • 3. Cells seeded on HA (1 ml)+medium (0.5 ml) coating. Each well was coated with ˜0.2 ml • 4. Cells (150,000) seeded in HA (1 ml)+medium (0.5 ml). 0.5 ml per well. • 5. Cells seeded on gelatin and after attachment (24 hours) covered with HA+medium (as above, coated with 0.5 ml per well) • 6. Cells seeded on Laminin coating • 7. Cells seeded on HA-LN-gel coating (0.9 ml HA, 0.1 ml Laminin, 0.4 ml medium). Coating was with ˜0.2 ml per well • 8. Cells (150,000) seeded in HA-LN-gel (as in g) • 9. Cells seeded on gelatin and after attachment (24 hours) covered with HA-LN-gel (as in g above)
The morphology of the seeded cells was monitored microscopically every day.
Therefore the above experiment was repeated using 10% of the laminin concentration. Endothelial were seeded in 12 well plates in triplicates (50000 cell/well) as follows: • 1. Cells on gelatin coating as control. • 2. Cells on HA-LN-gel (10% of the usual concentration of laminin) coating. • 3. Cells in HA-LN-gel (10% of the usual concentration of laminin) • 4. Higher concentration of cells (100,000/well) in HA-LN-gel (10% of the usual concentration of laminin).

## O=C1O[C@H]([C@@H](O)CO)C(O)=C1O [Ascorbic acid]
[1]; 1 mM, 330 μM or 100 μM applied to the cell cultures
  effectiveness of the tested concentrations: effective
[1]
  most effective dose: 330 µM
  neuronal sprouting: stimulated intensive sprouting

## CC(=O)N[C@@H](CS)C(=O)O [N-acetyl-L-cysteine]
[1]
  most effective dose: 10 µM
  neuronal sprouting: stimulated intensive sprouting

## Cc1ccc(-c2cn3c4c(sc3n2)CCCC4)cc1 [Pifithrin-α, cyclic]
[1]; 100 and 200 nM versus 2 μM
  effectiveness compared between concentrations: more effective
[1]
  neuronal sprouting: stimulated intensive sprouting

## laminin: adhesive glycoprotein; Murine LN-1 obtained from Sigma
[2]; 50,000 cells per well, 12-well plates, usual laminin concentration, monitored microscopically every day
  morphology and attachment of cells seeded on the coating: appeared round and did not attach well to the substrate
[2]; cells seeded on the coating
  toxicity to endothelial cells as substrate coating: toxic
[2]; laminin alone or as a component of the HA-LN-gel, at the concentration examined
  toxic effects on EC, overall finding of first experiment: some toxic effects
